Measurements from ChEMBL document CHEMBL1201862, “PubChem BioAssay data set” (2004).
Values joined by “and” are separate entries in the source; they are usually repeats but may differ in a detail not shown here. Equal values may be shown once.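 Following 48 hours of exposure in 96-well plates, responses at five concentrations were used to interpolate endpoints linearly. Here, GI50 denotes the concentration required for 50% inhibition of growth.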 Active and inactive are the calls of the source. Rule as the data show it: active = GI50 up to about 1.1 µM and inactive = higher.

Legend:
Experiment in all cases: NCI anticancer screen, dose series, 48 h
[1] = system: 786-0
[2] = system: A498
[3] = system: A549
[4] = system: ACHN
[5] = system: CAKI-1
[6] = system: COLO 205
[7] = system: DU-145
[8] = system: HCT-116
[9] = system: HCT-15
[10] = system: HOP-62
[11] = system: K562
[12] = system: KM12
[13] = system: M14
[14] = system: MCF7
[15] = system: MDA-MB-231
[16] = system: MDA-MB-435
[17] = system: MDA-N
[18] = system: MOLT-4
[19] = system: Malme-3M
[20] = system: NCI-H23
[21] = system: NCI-H522
[22] = system: NCI/ADR-RES
[23] = system: OVCAR-3
[24] = system: OVCAR-4
[25] = system: OVCAR-5
[26] = system: OVCAR-8
[27] = system: PC-3
[28] = system: RPMI-8226
[29] = system: RXF 393
[30] = system: SF-268
[31] = system: SF-539
[32] = system: SK-MEL-28
[33] = system: SK-MEL-2
[34] = system: SK-MEL-5
[35] = system: SK-OV-3
[36] = system: SN12C
[37] = system: SNB-19
[38] = system: SR
[39] = system: SW-620
[40] = system: T47D
[41] = system: TK-10
[42] = system: U-251
[43] = system: UACC-62
[44] = system: UO-31
[45] = system: CCRF-CEM
[46] = system: EKVX
[47] = system: HCC 2998
[48] = system: HL-60
[49] = system: HOP-92
[50] = system: HT-29
[51] = system: Hs-578T
[52] = system: IGROV-1
[53] = system: LOX IMVI
[54] = system: NCI-H226
[55] = system: NCI-H460
[56] = system: SF-295
[57] = system: SNB-75
[58] = system: UACC-257

Measured: GI50

N#CC1=C(Nc2ccccc2)SC=C(c2ccccc2)N=C1NCc1ccccc1
active: [38] 0.984 µM
inactive: [1] > 100 µM | [2] > 100 µM | [3] > 100 µM | [4] > 100 µM | [5] > 100 µM | [6] 65.5 µM | [7] > 100 µM | [8] > 100 µM | [10] > 100 µM | [11] 24.9 µM | [12] > 100 µM | [13] > 100 µM | [14] > 100 µM | [15] > 100 µM | [16] > 100 µM | [17] > 100 µM | [18] 72.6 µM | [19] > 100 µM | [20] > 100 µM | [21] 53.8 µM | [22] > 100 µM | [23] > 100 µM | [24] > 100 µM | [25] > 100 µM | [26] > 100 µM | [27] > 100 µM | [28] 18.7 µM | [29] > 100 µM | [30] > 100 µM | [31] > 100 µM | [32] > 100 µM | [33] > 100 µM | [34] 54.5 µM | [35] > 100 µM | [36] > 100 µM | [37] > 100 µM | [39] > 100 µM | [40] > 100 µM | [41] > 100 µM | [42] > 100 µM | [43] > 100 µM | [44] 71 µM
> 100 µM: [9]

[N-]=[N+]=CC(=O)OCC1NC(=O)C(COC(=O)C=[N+]=[N-])NC1=O (configuration not stated)
> 100 µM: [9]
inactive: [1] > 100 µM | [2] > 100 µM | [3] > 100 µM | [4] > 100 µM | [5] > 100 µM | [45] > 100 µM | [6] > 100 µM | [7] > 100 µM | [46] > 100 µM | [47] > 100 µM | [8] > 100 µM | [48] > 100 µM | [10] > 100 µM | [49] > 100 µM | [50] > 100 µM | [51] > 100 µM | [52] > 100 µM | [11] > 100 µM | [12] > 100 µM | [53] > 100 µM | [13] > 100 µM | [14] > 100 µM | [15] > 100 µM | [16] > 100 µM | [17] > 100 µM | [18] > 100 µM | [19] > 100 µM | [54] > 100 µM | [20] > 100 µM | [55] > 100 µM | [22] > 100 µM | [23] > 100 µM | [24] > 100 µM | [25] > 100 µM | [26] > 100 µM | [27] > 100 µM | [28] > 100 µM | [30] > 100 µM | [56] > 100 µM | [31] > 100 µM | [32] > 100 µM | [33] > 100 µM | [35] > 100 µM | [36] > 100 µM | [37] > 100 µM and 72.1 µM | [57] > 100 µM | [38] > 100 µM | [39] > 100 µM | [40] > 100 µM | [41] > 100 µM | [42] > 100 µM | [58] > 100 µM | [43] > 100 µM | [44] > 100 µM

Clc1ccc(OCc2nn3c(CCc4nnc5sc(COc6ccc(Cl)cc6)nn45)nnc3s2)cc1
18.2 µM: [9]
inactive: [1] 26.4 µM | [2] 11.9 µM | [4] 15.1 µM | [5] 3.35 µM | [45] 29.1 µM | [7] 19.1 µM | [46] 27.7 µM | [8] 21.9 µM | [48] 18.8 µM | [10] 23.7 µM | [50] 27.8 µM | [51] 3.94 µM | [52] 16.8 µM | [11] 9.4 µM | [12] 18 µM | [53] 37.2 µM | [13] 33.7 µM | [14] 21.4 µM | [15] 19.8 µM | [16] 24.9 µM | [17] 30.3 µM | [18] 6.62 µM | [54] 30.3 µM | [20] 15.3 µM | [55] 18.4 µM | [21] 5.62 µM | [22] 8.15 µM | [23] 16 µM | [24] 14.7 µM | [25] 53.7 µM | [26] 14.5 µM | [27] 15.6 µM | [28] 17.3 µM | [29] 23.8 µM | [30] 5.61 µM | [56] 24.5 µM | [31] 27.9 µM | [32] 33.9 µM | [33] 25.7 µM | [34] 11.1 µM | [35] 28.8 µM | [39] 25.2 µM | [40] 22.4 µM | [41] 26.4 µM | [42] 20.7 µM | [58] 22.9 µM | [44] 1.53 µM
